Key:
VCAM-1 = VCAM-1 western blot in TNFα treated HUVECs; type: cell-based, human
Procedure: FIG. 25 is a graph showing VCAM-1 protein expression level as a cellular correlate of inflammation. INV-75 inhibits TNFα induced VCAM-1 expression in HUVECs. HUVECs were pretreated with vehicle, INV75, or WY-14643 for 2 hours, and then treated with TNFα for 4 hours. VCAM-1 expression was analyzed by Western blot. A representative and summary of three independent experiments are presented. *, p<0.05 vs control; #, p<0.05 vs TNFα.
In subsequent experiments we also tested the effects of INV-75 on VCAM-1 expression by western blot.
We have also examined the effects of INV-75 in cell culture to understand its effects on regulation of the adhesion molecule VCAM-1. We had previously shown that iNV-75 reduced NF-kB activation and expression of VCAM-1 and ICAM-1 in HUVEC cells (see FIG. 3 and FIG. 4). […] HUVECs were pretreated with vehicle, INV-75, or WY-14643 for 2 hours, and then treated with TNFα for 4 hours. VCAM-1 expression was analyzed at the end of this duration. A representative and summary of three independent experiments are presented. *, p<0.05 vs control; #, p<0.05 vs TNFα (FIG. 25).

[1] = tested on: Watanabe Heritable Hyperlipidemic Rabbits (WHHL); assay: Morphometric analysis of atherosclerotic burden in WHHL rabbits; type: in vivo, rabbit; details: end of 12 weeks, H&E morphometry
Procedure: Segments of descending thoracic aorta were embedded in Optimal Cutting Temperature compound (Tissue-Tek, Sakura Finetek USA Inc, Torrance, Calif.) and frozen on dry ice. En face sections were then prepared. To analyze atherosclerotic burden, 8 sections (4 μm thick) were collected at intervals of 20 μm. After H&E staining, each section was digitized with a digital camera and analyzed using a microscope (Zeiss Axioskop with Spot I digital camera, Jena, Germany) with National Institutes of Health (NIH) Image software version 1.61. Results were expressed as mm^2. Morphometric assessment of plaque burden in the thoracic aorta at the end of 12 weeks corroborated the anti-atherosclerotic effects of INV-75 by MRI on the abdominal aorta. The summary of atherosclerotic burden in abdominal aorta of control and INV-75 groups of WHHL rabbits are presented. n=5/group. *, p<0.05 vs control animals, n=4, using un-paired t test. Approximately 60% reduction in atherosclerosis burden in WHHL rabbits compared to control group was observed (FIG. 9).

human full length PPARα = biological target: T1, human full length PPARα (Homo sapiens, UniProt Q07869); assay: PPARα promoter-reporter luciferase assay in HepG2 cells; type: cell-based
T1 construct: HepG2 cells transfected by full length human PPARα linked to luciferase reporter; expressed in transfected cells; host or cells: HepG2
T1 sequence (Q07869 1-468): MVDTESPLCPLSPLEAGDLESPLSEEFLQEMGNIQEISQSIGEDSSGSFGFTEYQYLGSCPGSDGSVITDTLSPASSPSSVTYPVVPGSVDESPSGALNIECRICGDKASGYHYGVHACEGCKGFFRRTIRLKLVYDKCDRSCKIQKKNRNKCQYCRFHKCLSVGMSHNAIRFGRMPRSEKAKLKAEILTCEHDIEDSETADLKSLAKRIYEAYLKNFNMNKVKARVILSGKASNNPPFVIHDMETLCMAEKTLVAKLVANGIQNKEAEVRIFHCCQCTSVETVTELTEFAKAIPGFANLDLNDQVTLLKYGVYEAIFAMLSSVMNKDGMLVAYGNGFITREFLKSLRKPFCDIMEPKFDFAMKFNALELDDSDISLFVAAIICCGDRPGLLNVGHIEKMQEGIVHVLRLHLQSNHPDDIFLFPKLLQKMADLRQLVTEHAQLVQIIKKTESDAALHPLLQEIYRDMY
From the text: HepG2 cells were transfected with the full length PPARα promoter reporter construct and stimulated by INV-75 ([…]). Results in C are expressed as % increase compared to WY 14643.
We used a reporter gene assay in HepG2 cells to screen for agonists of the peroxisome proliferator-activated receptors. Peroxisome proliferator-activated receptors (PPARs) and other members of the nuclear hormone receptor family are important drug targets for the treatment of metabolic diseases. PPARs play crucial roles in lipid and glucose metabolism, respectively. Therefore, screening methods that help to rapidly identify activators of these receptors should be of considerable value. INV-75 activated a classic PPARα gene, Acetyl-CoA Oxidase (ACO) in a dose dependent and time dependent fashion (FIG. 6A). The time course experiment was performed in presence of INV-75 up to 15 hours. […] We next tested the specificity of INV-75 for PPARα by performing experiments in HepG2 cells transfected with yeast GAL4-PPARα-LBD plasmid+UAS-Luciferase; GAL4-PPARδ-LBD plasmid+UAS-Luciferase and […]. The PPARα, PPARδ and PPARγ binding assays were performed using multiple concentrations of INV-75 (1 μM, 10 μM, 100 μM and 1000 μM). The level of luciferase activity corresponded to the degree of PPAR activation. The results were compared with classic PPAR agonists such as WY-14643 (PPARα agonist), Bezafibrate (PPARδ agonist) and Rosiglitazone ([…]).

Individuals = assay: Treatment of inflammatory arthritis (Example 26); type: in vivo, human; details: oral, 6 months
From the text: Individuals with rheumatoid arthritis, psoriatic arthritis and systemic lupus erythematosis suffer from recurrent bouts of inflammatory arthritis. They are usually on treatments such as non-steroidal agents such as cyclooxygenase inhibitors, anti-TNFα treatments and other types of immunotherapy. In addition to these treatments they will also receive an acceptable dose of a composition comprising a compound of the present invention in an acceptable carrier orally chronically for durations in excess of 6 months. In one study, 3,4-methylenedioxy-6-nitrophenyl acetate (INV 75) is administered to these individuals. The patients undergo an assessment of joint pains and inflammatory markers such as C-reactive protein (CRP) and erythrocyte sedimentation rate.

Patient = assay: Treatment of a patient with chronic stable angina (Example 20); type: in vivo, human; details: oral, 1.0 to 100 mg/kg, two weeks
Procedure: A person with a prior history of a heart attack (myocardial infarction) 10 years ago presents for evaluation. They are complaining of anginal chest pains that are relived with one sub-lingual nitroglycerin and has had these pains chronically. The patient is administered a composition comprising an effective amount of oral 3,4-Methylenedioxy 6-nitro phenyl lipoate (INV-7465) (1.0 to 100 mg/kg). Alternate therapies include, 3,4-methylenedioxy phenyl acetate (INV 73); 3,4-methylenedioxy-6-nitrophenol (INV 74); 3,4-methylenedioxy-6-nitrophenyl acetate (INV 75); or 3,4-Methylenedioxy phenyl lipoate (INV-7065). Patient notes added benefit in their chest pains with this regimen after taking the medication for two weeks.

SMILES: CC(=O)Oc1cc2c(cc1[N+](=O)[O-])OCO2 [INV-75, 3,4-methylenedioxy-6-nitrophenyl acetate]
- TNFα induced VCAM-1 expression (VCAM-1; HUVECs pretreated 2 hours, then TNFα 4 hours): inhibits
- VCAM-1 protein levels by western blot (VCAM-1; pre-treatment versus control (vehicle)): reduction
- reduction in atherosclerosis burden compared to control group [1]: Approximately 60%
- luciferase activation (human full length PPARα; HepG2 transfected with PPARα promoter-reporter construct): increased
- persistence of effects on PPARα activation (human full length PPARα; time course): up to 15 hours
- time of onset of PPARα activation (human full length PPARα; time course): < 1 h
- joint pains and markers of inflammation (Individuals): marked improvement

SMILES: O=C(CCCCC1CCSS1)Oc1cc2c(cc1[N+](=O)[O-])OCO2 (centres unmarked) [INV-7465, 3,4-Methylenedioxy 6-nitro phenyl lipoate]
- chest pains (Patient): added benefit
